From patent US4990450A, “Method of producing endo-α-N-acetylgalactosaminidase from microorganisms” (Seitetsu Kagaku Co., Ltd., priority 1987, dated 1991)
Where two headings read alike, the source gives them in different places.

Key:
endo-α-GalNAcase [1] = experiment: Effects of inhibitors (additives) on enzyme activity; type: biochemical, Alcaligenes sp. F-1906
Method: (§1) The activity of this enzyme can be measured with asialofetuin as a substrate. The enzyme reaction is carried out in citrate buffer, pH 4.5, at 37° C., and then stopped by adding a borate buffer, pH 9.1, to this reaction mixture. The Gal β1→3GalNAc produced is measured by the method of Reissig. One unit of enzyme activity is defined as the amount of enzyme that releases 1 μmol of Gal β1,→3GalNAc in one minute.
The enzyme was tested for the effects of various kinds of substances.

endo-α-GalNAcase [2] = experiment: Substrate specificity of the enzyme; type: biochemical, Alcaligenes sp. F-1906
[3] = pH and temperature stability of the enzyme; type: physicochemical
Method: (§2) The optimum pH of the enzyme reaction is 4.5-5.0 The enzyme is stable in the pH range of 4.2-6.5. thin this pH range, the activity remains about 90% or more after the enzyme is left at 1 hour at 30° C.
(§3) The optimum temperature for the enzyme reaction is 40-45° C. The temperature at which the enzyme is stable for 10 minutes when kept in a phosphate buffer, pH 6.0, is 30° C. or less. At 40° C., about 70% of the activity remains after such treatment.

asialofetuin = experiment: Enzyme activity with asialofetuin as substrate (optimum pH, optimum temperature, activity of purified enzyme); type: biochemical
Method: as §1, §2, §3
Commercially available mucin from pig gastric mucosa was mixed with 1 N sulfuric acid and left for 1 hour at 80° C. for hydrolysis, which removed the sialic acid moiety of the mucin. The hydrolysate was added to the medium at the concentration of 1%. Five hundred milliliters of the medium was put into each of 40 flasks with a capacity of 2 liters, which were sterilized and were inoculated with 5 ml of pre-cultured Alcaligenes sp. F-1906. The flasks were cultured at 28° C. for 3 days. After the culture, the bacterial cells were removed by centrifugation, and the supernatant of the culture was obtained. Ammonium sulfate was added to this supernatant at 0-5° C. and the fractions that precipitated at the saturation of 40-80% ammonium sulfate were collected. This precipitate was dissolved in 0.01 M phosphate buffer, pH 6.0, and then dialyzed overnight against the same buffer. The dialysate was put on a DEAE-Sephadex® A-50 column (5.0×32.5 cm) equilibrated with 0.01 M phosphate buffer. After the column was washed with the same buffer containing 0.2 M NaCl, the enzyme was eluted with the same buffer containing 0.4 M NaCl. […]

[4] = additive concentration 2.4 mM, no additive = 100
[5] = additive concentration 2.0 mM, no additive = 100
[6] = additive concentration 2.5 mM, no additive = 100

O=C(O)c1cc[c]([Hg][Cl])cc1 [p-Chloromercuribenzoic acid]
Effect on enzyme activity (in words) (endo-α-GalNAcase [1]; Table 2): almost unaffected | Relative activity (endo-α-GalNAcase [1]; [4]): 99%

asialofetuin: glycoprotein with O-glycosidic Gal β1→3GalNAc α→Ser (or Thr) sugar chains, used as substrate
Use as substrate of the enzyme (endo-α-GalNAcase [2]): can be used as substrates

N[C@H]1C(O)O[C@H](CO)[C@@H](O)[C@@H]1O (stereo partly drawn) [Glucosamine]
Relative activity (endo-α-GalNAcase [1]; [5]): 111%

N[C@@H](CS)C(=O)O [Cysteine]
Inhibition of the enzyme (endo-α-GalNAcase [1]; Table 2): approximately 30% | Relative activity (endo-α-GalNAcase [1]; [4]): 68%

[Cu+2] [Cu]
Inhibition of the enzyme (endo-α-GalNAcase [1]; Table 2): 26-35% | Relative activity (endo-α-GalNAcase [1]; [6]): 74%

O=C(O)CN(CCN(CC(=O)O)CC(=O)O)CC(=O)O [Ethylenediamine-tetraacetic acid]
Relative activity (endo-α-GalNAcase [1]; [6]): 97%

OCCS [Mercaptoethanol]
Effect on enzyme activity (in words) (endo-α-GalNAcase [1]; Table 2): almost unaffected | Relative activity (endo-α-GalNAcase [1]; [4]): 97%

O=C(O)CI [Iodoacetic acid]
Effect on enzyme activity (in words) (endo-α-GalNAcase [1]): almost unaffected | Relative activity (endo-α-GalNAcase [1]; endo-alpha-galnacase, pH 4.5, 2400 µM): 109%

[Ca+2] [Ca]
Relative activity (endo-α-GalNAcase [1]; [6]): 109%

OC[C@H]1OC(O)[C@H](O)[C@@H](O)[C@@H]1O (stereo partly drawn) [Glucose]
Relative activity (endo-α-GalNAcase [1]; [5]): 109%

CC(=O)N[C@H]1[C@H]([C@H](O)[C@H](O)CO)OC(O)(C(=O)O)C[C@@H]1O (stereo partly drawn) [Sialic acid]
Relative activity (endo-α-GalNAcase [1]; additive concentration 1.0 mM, no additive = 100): 106%

OC[C@H]1OC(O)[C@H](O)[C@@H](O)[C@H]1O (stereo partly drawn) [Galactose]
Relative activity (endo-α-GalNAcase [1]; [5]): 107%

[Mn+2] [Mn]
Inhibition of the enzyme (endo-α-GalNAcase [1]; Table 2): 26-35% | Relative activity (endo-α-GalNAcase [1]; [6]): 65%

endo-α-N-acetylgalactosaminidase [endo-α-GalNAcase]
Activity remaining ([3]; 40° C., 10 minutes in phosphate buffer, pH 6.0): about 70% | Temperature at which the enzyme is stable ([3]; 10 minutes in phosphate buffer, pH 6.0): ≤ 30 °C | pH range in which the enzyme is stable ([3]; 1 hour at 30° C.): 4.2-6.5 | Activity remaining ([3]; within pH 4.2-6.5, 1 hour at 30° C.): ≥ 90% | Optimum pH of the enzyme reaction (asialofetuin): 4.5-5.0 | Optimum temperature for the enzyme reaction (asialofetuin): 40-45 °C | relative activity of purified enzyme (asialofetuin; purified form, Example 1): 2.2 units/mg

N[C@H]1C(O)O[C@H](CO)[C@H](O)[C@@H]1O (stereo partly drawn) [Galactosamine]
Relative activity (endo-α-GalNAcase [1]; [5]): 106%

[Zn+2] [Zn]
Relative activity (endo-α-GalNAcase [1]; [6]): 88%

CCN1C(=O)C=CC1=O [N-Ethylmaleimide]
Effect on enzyme activity (in words) (endo-α-GalNAcase [1]; Table 2): almost unaffected | Relative activity (endo-α-GalNAcase [1]; [4]): 105%
